# Where a SMILES comes first, the peptide text is derived from it. [ ]: non-standard residue; d: D form. N(tridecyl)Gly = CCCCCCCCCCCCCNCC(=O)O; Gly(N-2-aminoethyl) = NCCNCC(=O)O; Gly(N-cHex) = O=C(O)CNC1CCCCC1; Nlys = NCCCCNCC(=O)O
# How the values were obtained:
# [1] = system: C. albicans; type: cell-based, Candida albicans; details: 24 h
# Experimental: 2-fold serial dilutions of 100× peptoid solutions were prepared in water and 2 μL of peptoid were added to each well in triplicate. […] MIC was defined as the lowest concentration of compound preventing fungal growth. This assay was repeated 3 times on separate days with each compound.
# [2] = system: C. albicans biofilm; type: cell-based, Candida albicans; details: 24 h
# Experimental: Plates were incubated overnight at 37° C. Media was gently removed and gently washed three times with PBS. RPMI-MOPS (198 μL) were added to each well. 2-fold serial dilutions of 100× peptoid solutions were prepared in water and 2 μL of peptoid were added to each well in triplicate then incubated at 37° C. for 24 hours. PrestoBlue (20 μL) was added to each well and incubated at 37° C. for one hour before measuring fluorescence on a SpectraMax M5 plate reader (Ex. 555 nm; Em. 585 nm).
# [3] = system: C. neoformans
compound,measurement,setting,value
"CCCCCCCCCCCCCNCC(=O)N(CC(=O)N(CCCCN)CC(=O)N(CCN)CC(=O)N(CC(N)=O)C1CCCCC1)C1CCCCC1 [RMG8-8, Ntri-Ncha-Nlys-Nae-Ncha] (H-[N(tridecyl)Gly][Gly(N-cHex)][Nlys][Gly(N-2-aminoethyl)][Gly(N-cHex)]-NH2)",MIC C. albicans,[1],25 µg/mL
same,MIC C. albicans biofilm (MBIC),[2],100 µg/mL
same,MIC C. neoformans after incubation with human serum,[3],3.13 µg/mL
same,"MIC C. neoformans, stock not incubated with human serum",[3],1.56 µg/mL
